# Data as given in PubChem BioAssay (NCI).
#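 GI50 = concentration required for 50% inhibition of growth. TGI denotes the concentration required for complete inhibition of growth.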
# Tests used:
# Assay in all cases: NCI-60 cell line screen, 384-well format
# HCC-2998 colon = test system: HCC-2998 colon
# RPMI-8226 leukemia = test system: RPMI-8226 leukemia
# NCI-H522 lung = test system: NCI-H522 lung
# MCF7 breast = test system: MCF7 breast
# U251 glioblastoma = test system: U251 glioblastoma
# CAKI-1 renal = test system: CAKI-1 renal
# T-47D breast = test system: T-47D breast
# A549 NSCLC = test system: A549 NSCLC
# SK-MEL-28 melanoma = test system: SK-MEL-28 melanoma
# OVCAR-8 ovarian = test system: OVCAR-8 ovarian
# EKVX NSCLC = test system: EKVX NSCLC
# NCI-H460 NSCLC = test system: NCI-H460 NSCLC
# IGROV1 ovarian = test system: IGROV1 ovarian
# UACC-257 melanoma = test system: UACC-257 melanoma
# RXF 393 renal = test system: RXF 393 renal
# HT29 colon = test system: HT29 colon
# HCT-15 colon = test system: HCT-15 colon
# NCI-H226 lung = test system: NCI-H226 lung
# BT-549 breast = test system: BT-549 breast
# SNB-19 CNS = test system: SNB-19 CNS
# HOP-62 NSCLC = test system: HOP-62 NSCLC
# MDA-MB-435 melanoma = test system: MDA-MB-435 melanoma
# M14 melanoma = test system: M14 melanoma
# SN12C renal = test system: SN12C renal
# HS 578T breast = test system: HS 578T breast
# OVCAR-3 ovarian = test system: OVCAR-3 ovarian
# 786-0 renal = test system: 786-0 renal
# CCRF-CEM leukemia = test system: CCRF-CEM leukemia
# SF-539 CNS = test system: SF-539 CNS
# HOP-92 NSCLC = test system: HOP-92 NSCLC
# NCI-H322M lung = test system: NCI-H322M lung
# SK-MEL-2 melanoma = test system: SK-MEL-2 melanoma
# MOLT-4 leukemia = test system: MOLT-4 leukemia
# HL-60(TB) leukemia = test system: HL-60(TB) leukemia
# A498 renal = test system: A498 renal
# SK-OV-3 ovarian = test system: SK-OV-3 ovarian
# MDA-MB-468 breast = test system: MDA-MB-468 breast
# SF-295 CNS = test system: SF-295 CNS
# SNB-75 CNS = test system: SNB-75 CNS
# OVCAR-5 ovarian = test system: OVCAR-5 ovarian
# NCI-H23 lung = test system: NCI-H23 lung
# NCI/ADR-RES ovarian = test system: NCI/ADR-RES ovarian
# DU-145 prostate = test system: DU-145 prostate
# SF-268 CNS = test system: SF-268 CNS
# UACC-62 melanoma = test system: UACC-62 melanoma
# KM12 colon = test system: KM12 colon
# ACHN renal = test system: ACHN renal
# TK-10 renal = test system: TK-10 renal
# SW-620 colon = test system: SW-620 colon
# SR leukemia = test system: SR leukemia
# SK-MEL-5 melanoma = test system: SK-MEL-5 melanoma
# PC-3 prostate = test system: PC-3 prostate
# OVCAR-4 ovarian = test system: OVCAR-4 ovarian
# MALME-3M melanoma = test system: MALME-3M melanoma
# MDA-MB-231 breast = test system: MDA-MB-231 breast
# COLO 205 colon = test system: COLO 205 colon
smiles,measurement,setting,value
CC(=O)c1cc2c(o1)C(=O)c1ccccc1C2=O,GI50,HCC-2998 colon,160 nM
same,TGI,HCC-2998 colon,305 nM
same,GI50,RPMI-8226 leukemia,132 nM
same,TGI,RPMI-8226 leukemia,374 nM
same,GI50,NCI-H522 lung,153 nM
same,TGI,NCI-H522 lung,289 nM
same,GI50,MCF7 breast,165 nM
same,TGI,MCF7 breast,305 nM
same,GI50,U251 glioblastoma,194 nM
same,TGI,U251 glioblastoma,503 nM
same,GI50,CAKI-1 renal,1030 nM
same,TGI,CAKI-1 renal,2210 nM
same,GI50,T-47D breast,198 nM
same,TGI,T-47D breast,439 nM
same,GI50,A549 NSCLC,176 nM
same,TGI,A549 NSCLC,317 nM
same,GI50,SK-MEL-28 melanoma,186 nM
same,TGI,SK-MEL-28 melanoma,336 nM
same,GI50,OVCAR-8 ovarian,236 nM
same,TGI,OVCAR-8 ovarian,669 nM
same,GI50,EKVX NSCLC,363 nM
same,TGI,EKVX NSCLC,1470 nM
same,GI50,NCI-H460 NSCLC,172 nM
same,TGI,NCI-H460 NSCLC,314 nM
same,GI50,IGROV1 ovarian,1230 nM
same,TGI,IGROV1 ovarian,2490 nM
same,GI50,UACC-257 melanoma,126 nM
same,TGI,UACC-257 melanoma,254 nM
same,GI50,RXF 393 renal,163 nM
same,TGI,RXF 393 renal,326 nM
same,GI50,HT29 colon,175 nM
same,TGI,HT29 colon,316 nM
same,GI50,HCT-15 colon,157 nM
same,TGI,HCT-15 colon,294 nM
same,GI50,NCI-H226 lung,166 nM
same,TGI,NCI-H226 lung,303 nM
same,GI50,BT-549 breast,141 nM
same,TGI,BT-549 breast,272 nM
same,GI50,SNB-19 CNS,175 nM
same,TGI,SNB-19 CNS,322 nM
same,GI50,HOP-62 NSCLC,37.5 nM
same,TGI,HOP-62 NSCLC,133 nM
same,GI50,MDA-MB-435 melanoma,156 nM
same,TGI,MDA-MB-435 melanoma,291 nM
same,GI50,M14 melanoma,168 nM
same,TGI,M14 melanoma,306 nM
same,GI50,SN12C renal,165 nM
same,TGI,SN12C renal,309 nM
same,GI50,HS 578T breast,179 nM
same,TGI,HS 578T breast,319 nM
same,GI50,OVCAR-3 ovarian,165 nM
same,TGI,OVCAR-3 ovarian,315 nM
same,GI50,786-0 renal,707 nM
same,TGI,786-0 renal,2040 nM
same,GI50,CCRF-CEM leukemia,357 nM
same,TGI,CCRF-CEM leukemia,1090 nM
same,GI50,SF-539 CNS,159 nM
same,TGI,SF-539 CNS,296 nM
same,GI50,HOP-92 NSCLC,363 nM
same,TGI,HOP-92 NSCLC,1390 nM
same,GI50,NCI-H322M lung,177 nM
same,TGI,NCI-H322M lung,317 nM
same,GI50,SK-MEL-2 melanoma,269 nM
same,TGI,SK-MEL-2 melanoma,434 nM
same,GI50,MOLT-4 leukemia,215 nM
same,TGI,MOLT-4 leukemia,437 nM
same,GI50,HL-60(TB) leukemia,202 nM
same,TGI,HL-60(TB) leukemia,347 nM
same,GI50,A498 renal,178 nM
same,TGI,A498 renal,318 nM
same,GI50,SK-OV-3 ovarian,1030 nM
same,TGI,SK-OV-3 ovarian,2210 nM
same,GI50,MDA-MB-468 breast,220 nM
same,TGI,MDA-MB-468 breast,565 nM
same,GI50,SF-295 CNS,126 nM
same,TGI,SF-295 CNS,255 nM
same,GI50,SNB-75 CNS,34.1 nM
same,TGI,SNB-75 CNS,101 nM
same,GI50,OVCAR-5 ovarian,149 nM
same,TGI,OVCAR-5 ovarian,283 nM
same,GI50,NCI-H23 lung,33.2 nM
same,TGI,NCI-H23 lung,138 nM
same,GI50,NCI/ADR-RES ovarian,215 nM
same,TGI,NCI/ADR-RES ovarian,562 nM
same,GI50,DU-145 prostate,137 nM
same,TGI,DU-145 prostate,268 nM
same,GI50,SF-268 CNS,234 nM
same,TGI,SF-268 CNS,818 nM
same,GI50,UACC-62 melanoma,168 nM
same,TGI,UACC-62 melanoma,306 nM
same,GI50,KM12 colon,299 nM
same,TGI,KM12 colon,1200 nM
same,GI50,ACHN renal,1310 nM
same,TGI,ACHN renal,2590 nM
same,GI50,TK-10 renal,1100 nM
same,TGI,TK-10 renal,2290 nM
same,GI50,SW-620 colon,175 nM
same,TGI,SW-620 colon,367 nM
same,GI50,SR leukemia,156 nM
same,TGI,SR leukemia,295 nM
same,GI50,SK-MEL-5 melanoma,55.8 nM
same,TGI,SK-MEL-5 melanoma,178 nM
same,GI50,PC-3 prostate,259 nM
same,TGI,PC-3 prostate,1140 nM
same,GI50,OVCAR-4 ovarian,156 nM
same,TGI,OVCAR-4 ovarian,295 nM
same,GI50,MALME-3M melanoma,148 nM
same,TGI,MALME-3M melanoma,280 nM
same,GI50,MDA-MB-231 breast,293 nM
same,TGI,MDA-MB-231 breast,1200 nM
same,GI50,COLO 205 colon,190 nM
same,TGI,COLO 205 colon,336 nM
